Experimental data as given in patent US6921539B2, “Antimicrobial therapeutic compositions and method of use” (priority 2002, dated 2005).

Experiments:
[1] = tested on: acute bronchio pneumonia; test: In Vivo Treatment of Pneumonia in Sheep, control group (Example 9); details: 15 i.m. injections of 2 ml every 8 hours
Description: (§1) For example, a normalization of body temperature, the animal has begun to eat if not eating before treatment, the specific symptoms (e.g., diarrhea, coughing, etc.) have ceased.
(§2) Treatments of procarvol by injection were through methods and techniques normally used by those in the agricultural field.
(§3) The following examples are from a control group. These were similar animals and received standard conventional antibiotic treatment with accepted veterinary treatment protocols.
A 60 day old male sheep with an initial weight of 40 lbs (18 kg) was afflicted with acute bronchio pneumonia. Symptoms included fever and difficult breathing. The sheep had been positively diagnosed for […]. The sheep had been treated previously with penicillin. The therapy included 15 intramuscular injections of 2 ml Procaine penicillin G every 8 hours. The temperature of the sheep over the course of treatment is shown below.

[2] = tested on: acute bronchio pneumonia; test: In Vivo Treatment of Pneumonia in Pig, control group (Example 13); details: 8 i.m. injections of 8 ml every 12 hours
Description: as §1, §2, §3
A three and one half (3½) month old male Landras pig with an initial weight of 80 lbs (36 kg) was afflicted with acute bronchio pneumonia. Symptoms included coughing, fever, and loss of appetite. The pig had been positively diagnosed for pneumonia. The pig had not been treated previously. The therapy included eight (8) intramuscular injections of 8 ml of ampicillin every 12 hours. The temperature of the pig over the course of treatment is shown below.

[3] = tested on: Steptococcus uberis; test: In Vivo Treatment of Mastitis in Cow, control group (Example 14); details: 8 i.m. injections of 8 ml every 12 hours
Description: as §1, §2, §3
A four (4) year old […] Holstein cow with an initial weight of 1000 lbs (454 kg) was afflicted with mastitis. Symptoms included edema on the udder, and poor quality milk. The cow had been positively diagnosed for Steptococcus uberis. The cow had been previously treated with penicillin and streptomycin. The therapy included eight (8) intramuscular injections of 8 ml of ampicillin every 12 hours. The temperature of the cow over the course of treatment is shown below.

[4] = tested on: Escherichia Coli; test: In Vivo Treatment of Colibacilosis in Calf, control group (Example 12); details: 5 i.m. injections of 5 ml and infusion of electrolytes every 12 hours
Description: as §1, §2, §3
A 15 day old male Holstein calf with an initial weight of 90 lbs (41 kg) was afflicted with Escerichia coli colibacilosis. Symptoms fever, diarrhea, dehydration, and loss of appetite. The calf had been positively diagnosed for Escherichia Coli. The calf had not been treated previously. The therapy included five (5) intramuscular injections of 5 ml ampicillin and also the infusion of electrolytes every 12 hours. The temperature of the calf over the course of treatment is shown below.

[5] = tested on: Escherichia coli; test: In Vivo Treatment of Colibacilosis in Pig, control group (Example 8); details: 2 i.m. injections of 2 ml every 12 hours
Description: as §1, §2, §3
A three (3) week old female Landras pig with an initial weight of 19 lbs (9 kg) was afflicted with Escherichia coli colibacilosis. Symptoms included diarrhea. The pig had been positively diagnosed for the bacterium Escherichia coli. The pig had been treated previously with ampicillin and colicisit. The therapy included two (2) intramuscular injections of 2 ml of ampicillin every 12 hours. The temperature of the pig over the course of treatment is shown below.

[6] = inactive metabolites after degradation by enzymes; cited from earlier work
[7] = cited from earlier work

In the case of `CC1(C)S[C@@H]2[C@H](NC(=O)Cc3ccccc3)C(=O)N2[C@H]1C(=O)O.CCN(CC)CCOC(=O)c1ccc(N)cc1` [Procaine penicillin G], the outcome of treatment [1] is reported as “successful recovery”.

In the case of `CC1(C)S[C@@H]2[C@H](NC(=O)[C@H](N)c3ccccc3)C(=O)N2[C@H]1C(=O)O` [ampicillin], the outcome of treatment [2] is reported as “successful recovery”, the outcome of treatment [3] is reported as “successful recovery” and the outcome of treatment [4] is reported as “died as a result of the infection”. For the same molecule, the outcome of treatment [5] was “died as a result of the infection”.

In the case of `Cc1ccc(C(C)C)cc1O` [carvacrol, 5-isopropyl-2-methylphenol], the “metabolites excreted in the urine” value [6] is given as “approx. 90%”, the “metabolites expired from the lungs in the form of carbon dioxide (CO2)” value [6] is given as 10% and the solubility in lipids [7] is given as “soluble in lipids”.

For `Cc1ccc(C(C)C)c(O)c1` [thymol, 5-methyl-2[1-methylethyl]phenol], the “metabolites excreted in the urine” value [6] is given as “approx. 90%” and the “metabolites expired from the lungs in the form of carbon dioxide (CO2)” value [6] is given as 10%.
